One series has as its system Cochliobolus sativus. Kind of series: Spot Blotch of Wheat 1-day protectant test (COCHSA). The conditions noted are these: Bipolaris sorokiniana, 24 h; one-day protectant test, 200 ppm application rate, wheat plants (variety Yuma); read-out: COCHSA control of disease. It counts as in vivo. How it is done: The technical compounds were formulated at 200 ppm in 10 vol. acetone plus 90 vol. Triton X water (deionized water 99.99 wt. % +0.01 wt. Triton X100), giving a “formulated test compound.” The compounds were tested for ability to control plant diseases at the whole plant level in a 1-day protectant test (IDP). Formulated test compounds were applied to plants using a turn table sprayer fitted with two opposing air atomization nozzles which delivered approximately 1500 L/ha of spray volume. Plants were inoculated with spores of the fungus the next day, then incubated in an environment conducive to disease development. Disease severity was evaluated 4 to 19 days later, depending on the speed of disease development. […] Each pot contained 3-8 seedlings. These plants were sprayed until wet with the formulated test compound at a rate of 200 ppm. On the following day, the leaves were inoculated with an aqueous spore suspension of Cochliobolus sativus and the plants were kept in high humidity for one to two days to permit spores to germinate and infect the leaf. The plants were then transferred to a greenhouse until disease developed on untreated control plants. The following table presents the activity of typical compounds of the present invention when evaluated in these experiments. The effectiveness of the test compounds in controlling disease was determined by assessing the severity of disease on treated plants, then converting the severity to percent control based on the level of disease on untreated, inoculated plants.

For a further series, the system named is Septoria tritici. Kind of series: Speckled Leaf Blotch of Wheat 1-day protectant test (SEPTTR). It is filed as in vivo. The following applies: Zymoseptoria tritici, topical, 24 h; one-day protectant test, 200 ppm application rate, wheat plants (variety Monon); read-out: SEPTTR control of disease. The protocol: The technical compounds were formulated at 200 ppm in 10 vol. acetone plus 90 vol. Triton X water (deionized water 99.99 wt. % +0.01 wt. Triton X100), giving a “formulated test compound.” The compounds were tested for ability to control plant diseases at the whole plant level in a 1-day protectant test (IDP). Formulated test compounds were applied to plants using a turn table sprayer fitted with two opposing air atomization nozzles which delivered approximately 1500 L/ha of spray volume. Plants were inoculated with spores of the fungus the next day, then incubated in an environment conducive to disease development. Disease severity was evaluated 4 to 19 days later, depending on the speed of disease development. Speckled Leaf Blotch of Wheat (Mycosphaerella graminicola=Septoria tritici; Bayer code […]): Wheat plants (variety Monon) were grown from seed in a greenhouse in 50% pasteurized soil/50% soil-less mix until the first true leaf was fully expanded, with 3-8 seedlings per pot. These plants were sprayed until wet with the formulated test compound at a rate of 200 ppm. On the following day, the leaves were inoculated with an aqueous spore suspension of Septoria tritici and the plants were kept in high humidity (one day in a dark dew chamber followed by four to seven days in a lighted dew chamber) to permit spores to germinate and infect the leaf. The plants were then transferred to a greenhouse until disease developed on untreated control plants. The following table presents the activity of typical compounds of the present invention when evaluated in these experiments. The effectiveness of the test compounds in controlling disease was determined by assessing the severity of disease on treated plants, then converting the severity to percent control based on the level of disease on untreated, inoculated plants.

The subject of a further series is Leptosphaeria nodorum. Kind of series: Glume Blotch of Wheat 1-day protectant test (LEPTNO). The conditions noted are these: Parastagonospora nodorum, topical, 24 h; one-day protectant test, 200 ppm application rate, wheat plants (variety Yuma); read-out: LEPTINO control of disease. It is filed as in vivo. The protocol: The technical compounds were formulated at 200 ppm in 10 vol. acetone plus 90 vol. Triton X water (deionized water 99.99 wt. % +0.01 wt. Triton X100), giving a “formulated test compound.” The compounds were tested for ability to control plant diseases at the whole plant level in a 1-day protectant test (IDP). Formulated test compounds were applied to plants using a turn table sprayer fitted with two opposing air atomization nozzles which delivered approximately 1500 L/ha of spray volume. Plants were inoculated with spores of the fungus the next day, then incubated in an environment conducive to disease development. Disease severity was evaluated 4 to 19 days later, depending on the speed of disease development. Glume Blotch of Wheat (causal agent Leptosphaeria nodorum=Stagnospora nodorum; Bayer code […]): Wheat plants (variety Yuma) were grown from seed in a 50% pasteurized soil/50% soil-less mix until the seedlings had fully expanded first leaf. Each pot contains 3-20 seedlings. These plants were sprayed until wet with the formulated test compound at a rate of 200 ppm. On the following day, the leaves were inoculated with an aqueous spore suspension of Leptosphaeria nodorum and the plants were kept in high humidity (one day in a dark dew chamber followed by four to seven days in a lighted dew chamber) to permit spores to germinate and infect the leaf. The plants were then transferred to a greenhouse until disease developed on untreated control plants. The following table presents the activity of typical compounds of the present invention when evaluated in these experiments. The effectiveness of the test compounds in controlling disease was determined by assessing the severity of disease on treated plants, then converting the severity to percent control based on the level of disease on untreated, inoculated plants.

The next series relates to Colletotricum lagenarium. Kind of series: Cucumber Anthracnose 1-day protectant test (COLLLA). It is filed as in vivo. The following applies: Cucumis sativus, topical, 24 h; one-day protectant test, 200 ppm application rate, cucumber plants (variety Bush Champion); read-out: COLLLA control of disease. How it is done:
The technical compounds were formulated at 200 ppm in 10 vol. acetone plus 90 vol. Triton X water (deionized water 99.99 wt. % +0.01 wt. Triton X100), giving a “formulated test compound.” The compounds were tested for ability to control plant diseases at the whole plant level in a 1-day protectant test (IDP). Formulated test compounds were applied to plants using a turn table sprayer fitted with two opposing air atomization nozzles which delivered approximately 1500 L/ha of spray volume. Plants were inoculated with spores of the fungus the next day, then incubated in an environment conducive to disease development. Disease severity was evaluated 4 to 19 days later, depending on the speed of disease development. Cucumber Anthracnose (causal agent Colletotricum lagenarium; Bayer code COLLLA): Cucumber plants (variety Bush Champion) were grown from seed in a soilless peat-based potting mixture (Metromix) until the first true leaf was 20-80% expanded. Each pot contained 1 seedling. These plants were sprayed until wet with the formulated test compound at a rate of 200 ppm. On the following day, the leaves were inoculated with an aqueous spore suspension of Colletotricum lagenarium and the plants were kept in high humidity for one day to permit spores to germinate and infect the leaf. The plants were then transferred to a growth chamber until disease developed on untreated control plants. The following table presents the activity of typical compounds of the present invention when evaluated in these experiments. The effectiveness of the test compounds in controlling disease was determined by assessing the severity of disease on treated plants, then converting the severity to percent control based on the level of disease on untreated, inoculated plants.

In the next series the test system is Puccinia triticina. Kind of series: Leaf Rust of Wheat 1-day protectant test (PUCCRT). It is filed as in vivo. The conditions noted are these: topical, 24 h, one-day protectant test, 200 ppm application rate, wheat plants (variety Yuma), read-out: PUCCRT control of disease. The protocol:
The technical compounds were formulated at 200 ppm in 10 vol. acetone plus 90 vol. Triton X water (deionized water 99.99 wt. % +0.01 wt. Triton X100), giving a “formulated test compound.” The compounds were tested for ability to control plant diseases at the whole plant level in a 1-day protectant test (IDP). Formulated test compounds were applied to plants using a turn table sprayer fitted with two opposing air atomization nozzles which delivered approximately 1500 L/ha of spray volume. Plants were inoculated with spores of the fungus the next day, then incubated in an environment conducive to disease development. Disease severity was evaluated 4 to 19 days later, depending on the speed of disease development. […] Each pot contained 3-8 seedlings. These plants were sprayed until wet with the formulated test compounds at a rate of 200 ppm. On the following day, the leaves were inoculated with an aqueous spore suspension of Puccinia triticina and the plants were kept in high humidity overnight to permit spores to germinate and infect the leaf. The plants were then transferred to a greenhouse until disease developed on untreated control plants. The following table presents the activity of typical compounds of the present invention when evaluated in these experiments. The effectiveness of the test compounds in controlling disease was determined by assessing the severity of disease on treated plants, then converting the severity to percent control based on the level of disease on untreated, inoculated plants.

The test system of a further series is Pyricularia oryzae. Kind of series: whole plant or invertebrate. It is filed as in vivo. The following applies: topical, 24 h, read-out: PYRIOR control of disease.

Each structure is given as a SMILES string.

For the compound `COCC(C)Nc1cc(-c2ncnc(Nc3cccc(Cl)c3)n2)ccn1` (centres unmarked) [Compound 1, N-(3-chlorophenyl)-4-{2-[(2-methoxy-1-methylethyl)amino]pyridin-4-yl}-1,3,5-triazin-2-amine], the melting point is 149 to 151 °C. Moreover, in the series on Cochliobolus sativus, the pest or weed control at 200 ppm was 90 to 100%. Further, in the series with Septoria tritici, the pest or weed control at 200 ppm is 50 to 89%. For the same compound, the pest or weed control at 200 ppm in the series on Leptosphaeria nodorum is 90 to 100%. In addition, the pest or weed control at 200 ppm in the series with Colletotricum lagenarium is 90 to 100%. The pest or weed control at 200 ppm in the series with Puccinia triticina lay within 90 to 100%. The pest or weed control at 200 ppm with Pyricularia oryzae was in the range of 90 to 100%.
Take `COC[C@H](C)Nc1cc(-c2ncnc(Nc3cccc(Cl)c3)n2)ccn1` [Compound 2, N-(3-chlorophenyl)-4-(2-{[(1S)-2-methoxy-1-methylethyl]amino}pyridin-4-yl)-1,3,5-triazin-2-amine]: the melting point is 152 to 156 °C. In the series with Cochliobolus sativus, the pest or weed control at 200 ppm fell in the range of 90 to 100%. Moreover, the pest or weed control at 200 ppm in the series with Septoria tritici fell in the range of 90 to 100%. In addition, the pest or weed control at 200 ppm in the series with Leptosphaeria nodorum lay in the range of 90 to 100%. Moreover, in the series with Colletotricum lagenarium, the pest or weed control at 200 ppm was in the range of 90 to 100%. In the series on Puccinia triticina, the pest or weed control at 200 ppm fell in the range of 90 to 100%. Moreover, in the series with Pyricularia oryzae, the pest or weed control at 200 ppm lay within 90 to 100%.
The compound `COCC(C)Nc1cc(-c2ncnc(Nc3ccccc3Cl)n2)ccn1` (centres unmarked) [Compound 3, N-(2-chlorophenyl)-4-{2-[(2-methoxy-1-methylethyl)amino]pyridin-4-yl}-1,3,5-triazin-2-amine] returned a melting point of 139 to 140 °C. Moreover, in the series on Cochliobolus sativus, the pest or weed control at 200 ppm was in the range of 90 to 100%. Also, the pest or weed control at 200 ppm in the series with Septoria tritici lay in the range of 21 to 49%. Moreover, in the series with Leptosphaeria nodorum, the pest or weed control at 200 ppm was 21 to 49%. Moreover, in the series with Colletotricum lagenarium, the pest or weed control at 200 ppm is under 20%. For the same compound, the pest or weed control at 200 ppm in the series with Puccinia triticina is 50 to 89%. Further, the pest or weed control at 200 ppm with Pyricularia oryzae lay within 50 to 89%.
Turning to `COCC(C)Nc1cc(-c2ncnc(Nc3ccc(Cl)cc3)n2)ccn1` (centres unmarked) [Compound 4, N-(4-chlorophenyl)-4-{2-[(2-methoxy-1-methylethyl)amino]pyridin-4-yl}-1,3,5-triazin-2-amine], the melting point was 198 to 200 °C. Besides, the pest or weed control at 200 ppm in the series on Cochliobolus sativus was 50 to 89%. For the same compound, the pest or weed control at 200 ppm in the series on Septoria tritici was in the range of 50 to 89%. Besides, the pest or weed control at 200 ppm in the series with Leptosphaeria nodorum is 50 to 89%. For the same compound, in the series with Colletotricum lagenarium, the pest or weed control at 200 ppm was under 20%. Also, the pest or weed control at 200 ppm in the series with Puccinia triticina was 50 to 89%. Also, the pest or weed control at 200 ppm in the series on Pyricularia oryzae is under 20%.
For `CC(C)(C)Nc1cc(-c2ncnc(Nc3cccc(Cl)c3)n2)ccn1` [Compound 5, 4-[2-(tert-butylamino)pyridin-4-yl]-N-(3-chlorophenyl)-1,3,5-triazin-2-amine], the pest or weed control at 200 ppm with Cochliobolus sativus was 90 to 100%; in the series with Septoria tritici, 90 to 100%; in the series with Leptosphaeria nodorum it was 50 to 89%; in the series with Colletotricum lagenarium, 50 to 89%; in the series with Puccinia triticina, 90 to 100%; with Pyricularia oryzae it was 90 to 100%.
Compound `CC(COCc1ccccc1)Nc1cc(-c2ncnc(Nc3cccc(Cl)c3)n2)ccn1` (centres unmarked) [Compound 6, N-(3-chlorophenyl)-4-{2-[(2-(benzyloxy)-1-methylethyl)amino]pyridin-4-yl}-1,3,5-triazin-2-amine] gave a melting point of 79 to 80 °C. Moreover, the pest or weed control at 200 ppm in the series with Cochliobolus sativus lay within 50 to 89%. Further, the pest or weed control at 200 ppm in the series on Septoria tritici lay in the range of 90 to 100%. Also, the pest or weed control at 200 ppm with Leptosphaeria nodorum was 50 to 89%. Also, in the series on Colletotricum lagenarium, the pest or weed control at 200 ppm is under 20%. For the same compound, the pest or weed control at 200 ppm in the series with Puccinia triticina lay within 90 to 100%. Further, the pest or weed control at 200 ppm in the series with Pyricularia oryzae is under 20%.
For `Clc1ccc(Nc2ncnc(-c3ccnc(N4CCCCC4)c3)n2)cc1` [Compound 8, N-(4-chlorophenyl)-4-(2-piperidin-1-ylpyridin-4-yl)-1,3,5-triazin-2-amine], the pest or weed control at 200 ppm was under 20% with Cochliobolus sativus; 50 to 89% in the series on Septoria tritici; 50 to 89% in the series on Leptosphaeria nodorum; under 20% in the series with Colletotricum lagenarium; under 20% in the series with Puccinia triticina; under 20% with Pyricularia oryzae.
Consider `CC1COC(=O)N1c1cc(-c2ncnc(Nc3cccc(Cl)c3)n2)ccn1` (centres unmarked) [Compound 9], for which the pest or weed control at 200 ppm lay in the range of 90 to 100% in the series on Cochliobolus sativus; 50 to 89% in the series with Septoria tritici; 50 to 89% in the series with Leptosphaeria nodorum; 21 to 49% in the series on Colletotricum lagenarium; 90 to 100% in the series on Puccinia triticina; 90 to 100% with Pyricularia oryzae.

For the origin of these results see patent US20050130968A1, “Fungicidal 4-(2-aminopyridin-4-yl)-N-phenyl-1,3,5-triazin-2-amine derivatives” (priority 2003, published 2005).
